Reference: PubChem BioAssay AID256 (DTP/NCI, 2004)
Values joined by “and” are separate entries in the source; they are usually repeats but may differ in a detail not shown here. Identical values can stand only once. Inconclusive results and toxic doses are left out. The calls were made as follows: active = survival T/C of 150% or more; inactive = T/C below 125% in these data.

Tested on: CD2F1 mice, L1210 leukemia ip, survival T/C
Assay: NCI In Vivo Anticancer Drug Screen. Data for tumor model L1210 Leukemia (intraperitoneal) in CD2F1 (CDF1) mice
Details: higher = longer survival
Summary of the method: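 Each value reflects a quotient of treated over vehicle control outcomes in mice with a transplanted tumor.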

[1] = endpoint: mean survival time, dose: 100.0 mg/kg/injection, schedule: Q01DX009 (ip), vehicle: saline with Tween-80
[2] = endpoint: mean survival time, dose: 200.0 mg/kg/injection, schedule: Q01DX009 (ip), vehicle: saline with Tween-80
[3] = endpoint: mean survival time, dose: 400.0 mg/kg/injection, schedule: Q01DX009 (ip), vehicle: saline with Tween-80
[4] = endpoint: mean survival time, dose: 100.0 mg/kg/injection, schedule: Q01DX001 (ip), vehicle: saline with Tween-80
[5] = endpoint: mean survival time, dose: 200.0 mg/kg/injection, schedule: Q01DX001 (ip), vehicle: saline with Tween-80
[6] = endpoint: mean survival time, dose: 400.0 mg/kg/injection, schedule: Q01DX001 (ip), vehicle: saline with Tween-80
[7] = endpoint: mean survival time, dose: 100.0 mg/kg/injection, schedule: Q04DX003 (ip), vehicle: saline with Tween-80
[8] = endpoint: mean survival time, dose: 200.0 mg/kg/injection, schedule: Q04DX003 (ip), vehicle: saline with Tween-80
[9] = endpoint: mean survival time, dose: 50.0 mg/kg/injection, schedule: Q01DX009 (ip), vehicle: saline with Tween-80
[10] = endpoint: mean survival time, dose: 400.0 mg/kg/injection, schedule: Q04DX003 (ip), vehicle: saline with Tween-80
[11] = endpoint: mean survival time, dose: 25.0 mg/kg/injection, schedule: Q01DX001 (ip), vehicle: saline with Tween-80

Measured: T/C

COC(=O)c1ccc(C)c(O)c1[N+](=O)[O-]
inactive: [1] 100 % of control | [2] 96 % of control | [3] 101 % of control

C/C(=C\C(=O)C(C)(C)C)C(C)(C)C
inactive: [4] 93 % of control | [5] 96 % of control | [6] 96 % of control

O=S(CC(O)c1ccccc1)c1ccccc1 (configuration not stated)
inactive: [7] 93 % of control | [8] 102 % of control

C[N+](C)(C)/N=C/C=C/c1ccccc1
inactive: endpoint: mean survival time, dose: 12.5 mg/kg/injection, schedule: Q01DX009 (ip), vehicle: saline with Tween-80 104 % of control | endpoint: mean survival time, dose: 25.0 mg/kg/injection, schedule: Q01DX009 (ip), vehicle: saline with Tween-80 104 % of control | [9] 96 % of control and 107 % of control

COc1ccc(CCNC(=O)Cc2cc(OC)c(OC)cc2Br)cc1OC
inactive: [7] 94 % of control | [8] 100 % of control | [10] 96 % of control

Cc1cc(=O)c2ccccc2n1C
inactive: endpoint: mean survival time, dose: 5.0 mg/kg/injection, schedule: Q04DX002 (ip), vehicle: saline 98 % of control | endpoint: mean survival time, dose: 10.0 mg/kg/injection, schedule: Q04DX002 (ip), vehicle: saline 98 % of control | endpoint: mean survival time, dose: 20.0 mg/kg/injection, schedule: Q04DX002 (ip), vehicle: saline 98 % of control

CN(C)C(=O)NCCN(CCNC(=O)N(C)C)C(=O)N(C)C
inactive: [7] 98 % of control | [8] 96 % of control | [10] 94 % of control

CC1(C)C2CCC1(C(=O)O)CC2
inactive: [9] 100 % of control | [1] 100 % of control | [7] 92 % of control | [2] 97 % of control | [8] 95 % of control

CS(=O)(=O)c1cc([N+](=O)[O-])cc([N+](=O)[O-])c1Cl
inactive: endpoint: mean survival time, dose: 2.5 mg/kg/injection, schedule: Q01DX009 (ip), vehicle: saline with Tween-80 95 % of control | endpoint: mean survival time, dose: 5.0 mg/kg/injection, schedule: Q01DX009 (ip), vehicle: saline with Tween-80 91 % of control | endpoint: mean survival time, dose: 5.0 mg/kg/injection, schedule: Q04DX003 (ip), vehicle: saline with Tween-80 97 % of control | endpoint: mean survival time, dose: 10.0 mg/kg/injection, schedule: Q01DX009 (ip), vehicle: saline with Tween-80 96 % of control | endpoint: mean survival time, dose: 10.0 mg/kg/injection, schedule: Q04DX003 (ip), vehicle: saline with Tween-80 100 % of control

CCCN1C(=O)C2C3CCC(O3)C2C1=O (configuration not stated)
inactive: endpoint: mean survival time, dose: 100.0 mg/kg/injection, schedule: Q04DX002 (ip), vehicle: saline with Tween-80 95 % of control | endpoint: mean survival time, dose: 200.0 mg/kg/injection, schedule: Q04DX002 (ip), vehicle: saline with Tween-80 106 % of control | endpoint: mean survival time, dose: 400.0 mg/kg/injection, schedule: Q04DX002 (ip), vehicle: saline with Tween-80 102 % of control

C[C@@H](C[P+](c1ccccc1)(c1ccccc1)c1ccccc1)[C@](OC(=O)c1ccccc1)(C(=O)c1ccccc1)c1ccccc1
inactive: endpoint: mean survival time, dose: 6.25 mg/kg/injection, schedule: Q01DX001 (ip), vehicle: saline with Tween-80 100 % of control | endpoint: mean survival time, dose: 12.5 mg/kg/injection, schedule: Q01DX001 (ip), vehicle: saline with Tween-80 105 % of control | [11] 109 % of control

CN(C)C(=S)NNC(=O)c1ccc(Cl)cc1
inactive: [11] 98 % of control

O=S(CC(O)(c1ccccc1)c1ccccc1)c1ccccc1 (configuration not stated)
inactive: [7] 93 % of control | [8] 97 % of control | [10] 97 % of control

CCN(CC)CCNCc1c[nH]c(=S)[nH]c1=O
inactive: endpoint: mean survival time, dose: 100.0 mg/kg/injection, schedule: Q04DX003 (ip), vehicle: saline 103 % of control | endpoint: mean survival time, dose: 200.0 mg/kg/injection, schedule: Q04DX003 (ip), vehicle: saline 97 % of control | endpoint: mean survival time, dose: 400.0 mg/kg/injection, schedule: Q04DX003 (ip), vehicle: saline 101 % of control

Cc1ccccc1-n1c(O)c(N=Nc2ccccc2)c(=O)n(-c2ccccc2)c1=S
inactive: endpoint: mean survival time, dose: 50.0 mg/kg/injection, schedule: Q04DX003 (ip), vehicle: Klucel (hydroxypropylcellulose) (HPC) 93 % of control | endpoint: mean survival time, dose: 100.0 mg/kg/injection, schedule: Q04DX003 (ip), vehicle: Klucel (hydroxypropylcellulose) (HPC) 94 % of control | endpoint: mean survival time, dose: 200.0 mg/kg/injection, schedule: Q04DX003 (ip), vehicle: Klucel (hydroxypropylcellulose) (HPC) 104 % of control

Cc1ccc([N+](=O)[O-])cc1NC(=O)N1CCC(C)CC1
inactive: endpoint: mean survival time, dose: 50.0 mg/kg/injection, schedule: Q01DX009 (ip), vehicle: Klucel (hydroxypropylcellulose) (HPC) 98 % of control | endpoint: mean survival time, dose: 100.0 mg/kg/injection, schedule: Q01DX009 (ip), vehicle: Klucel (hydroxypropylcellulose) (HPC) 96 % of control | endpoint: mean survival time, dose: 200.0 mg/kg/injection, schedule: Q01DX009 (ip), vehicle: Klucel (hydroxypropylcellulose) (HPC) 101 % of control

Cc1ccc(CCOS(=O)(=O)c2ccc(C)cc2)cc1
inactive: [4] 97 % of control | [5] 95 % of control | [6] 95 % of control

CN(C)c1ccn(C2OC(CO)C(O)C2SC(C)(C)C)c(=O)n1 (configuration not stated)
inactive: endpoint: median survival time, dose: 12.5 mg/kg/injection, schedule: Q01DX005 (ip), vehicle: saline 100 % of control | endpoint: median survival time, dose: 25.0 mg/kg/injection, schedule: Q01DX005 (ip), vehicle: saline 99 % of control | endpoint: median survival time, dose: 50.0 mg/kg/injection, schedule: Q01DX005 (ip), vehicle: saline 97 % of control | endpoint: median survival time, dose: 100.0 mg/kg/injection, schedule: Q01DX005 (ip), vehicle: saline 104 % of control | endpoint: median survival time, dose: 200.0 mg/kg/injection, schedule: Q01DX005 (ip), vehicle: saline 96 % of control

CN(C)C(=O)N1CC1
inactive: [7] 98 % of control | [8] 98 % of control | [10] 106 % of control

Cc1nc2ccccc2c(=O)n1-c1ccccc1Cl
inactive: [1] 100 % of control | [7] 100 % of control | [2] 105 % of control | [8] 102 % of control | [3] 117 % of control | [10] 112 % of control

CC(C)=CBr
inactive: endpoint: mean survival time, dose: 100.0 mg/kg/injection, schedule: Q04DX003 (ip), vehicle: acetone 103 % of control | endpoint: mean survival time, dose: 200.0 mg/kg/injection, schedule: Q04DX003 (ip), vehicle: acetone 94 % of control

CC(=O)SCC(C)CCl (configuration not stated)
inactive: endpoint: mean survival time, dose: 100.0 mg/kg/injection, schedule: Q01DX009 (ip), vehicle: saline 101 % of control | endpoint: mean survival time, dose: 200.0 mg/kg/injection, schedule: Q01DX009 (ip), vehicle: saline 98 % of control | endpoint: mean survival time, dose: 400.0 mg/kg/injection, schedule: Q01DX009 (ip), vehicle: saline 104 % of control

c1cc[n+]2c(c1)-c1cccc[n+]1CCCC2
inactive: endpoint: mean survival time, dose: 75.0 mg/kg/injection, schedule: Q01DX009 (ip), vehicle: saline 108 % of control | endpoint: mean survival time, dose: 75.0 mg/kg/injection, schedule: Q04DX003 (ip), vehicle: saline 98 % of control | endpoint: mean survival time, dose: 150.0 mg/kg/injection, schedule: Q01DX009 (ip), vehicle: saline 100 % of control | endpoint: mean survival time, dose: 150.0 mg/kg/injection, schedule: Q04DX003 (ip), vehicle: saline 93 % of control | endpoint: mean survival time, dose: 300.0 mg/kg/injection, schedule: Q04DX003 (ip), vehicle: saline 96 % of control

CC(C)(C)C1=CC(=O)C(Cl)(C(C)(C)C)C(Cl)C1=O (configuration not stated)
inactive: [11] 97 % of control | endpoint: mean survival time, dose: 50.0 mg/kg/injection, schedule: Q01DX001 (ip), vehicle: saline with Tween-80 93 % of control

C1=CC(=P(c2ccccc2)(c2ccccc2)c2ccccc2)C=C1
inactive: [1] 98 % of control | [7] 94 % of control | [2] 100 % of control | [8] 95 % of control | endpoint: mean survival time, dose: 240.0 mg/kg/injection, schedule: Q01DX015 (ip), vehicle: saline 87 % of control | [3] 94 % of control | [10] 94 % of control | endpoint: mean survival time, dose: 480.0 mg/kg/injection, schedule: Q01DX015 (ip), vehicle: saline 87 % of control | endpoint: mean survival time, dose: 960.0 mg/kg/injection, schedule: Q01DX015 (ip), vehicle: saline 92 % of control
